Assay results as given in patent US8558011B2, “Cold menthol receptor-1 antagonists” (Janssen Pharmaceutica, NV, priority 2010, dated 2013).

Tests used:
[1] = tested on: CFA-induced Paw Radiant Heat Hypersensitivity; assay: CFA-induced paw radiant heat hypersensitivity; assay type: in vivo, rat
Experimental: Intraplantar injection of Complete Freund's Adjuvant (CFA) in rodents results in a long-lasting inflammatory reaction, characterized by a pronounced hypersensitivity to both thermal and mechanical stimuli. This hypersensitivity peaks between 24-72 hours following injection and can last for several weeks. […] This paradigm also may be conducted with a multiple dosing or a prophylactic dosing regime designed to alter the course of hyperalgesia development. This test predicts the analgesic, anti-allodynic and antihyperalgesic effect of numerous effective clinical agents, including NSAIDS such as acetaminophen, aspirin and ibuprofen, and opioids such as morphine.
Each rat was placed in a test chamber on a warm glass surface and allowed to acclimate for approximately 10 minutes. A radiant thermal stimulus (beam of light) was then focused through the glass onto the plantar surface of each hind paw in turn. The thermal stimulus was automatically shut off by a photoelectric relay when the paw was moved or when the cut-off time was reached (20 seconds for radiant heat at ˜5 Amps). An initial (baseline) response latency to the thermal stimulus was recorded for each animal prior to the injection of CFA. Twenty-four hours following intraplantar CFA injection, the response latency of the animal to the thermal stimulus was then re-evaluated and compared to the animal's baseline response time. […] Immediately following the post-CFA latency assessment, test compound or vehicle (usually Solutol, hydroxypropyl methylcellulose, hydroxypropyl beta-cyclodextrin or PEG-400) was administered i.p. or p.o. to rats. […] The percent reversal (% R) of hypersenstivitiy was calculated according to the following formula: % Reversal=(Treatment Response−CFA Response)/(Baseline Response−CFA Response)×100.

canine TRPM8 = molecular target: T1, canine TRPM8 (Canis lupus familiaris, UniProt Q1A7N1); assay: In Vitro Canine TRPM8 Functional Assay (Ca2+-sensitive fluorescent dye, icilin activation, FLIPR/FDSS); assay type: cell-based; details: HEK293 cells stably expressing canine TRPM8, icilin activation; for % I (1 μM): compound at 1 μM; for % I (0.5 μM): compound at 0.5 μM; for IC50: eight-point dose-response
T1 construct: expressed in transfected cells
Experimental: The functional activity of compounds of Formula (I) was determined by measuring changes in intracellular calcium concentration using a Ca^2+-sensitive fluorescent dye. The changes in fluorescent signal were monitored by a fluorescence plate reader, either a FLIPR™ (Molecular Devices) or FDSS (Hamamatsu).
HEK293 cells stably expressing canine TRPM8 were routinely grown as monolayers in Dulbecco's minimum essential medium supplemented with 10% FBS, 1 mM L-glutamine, 100 units/mL penicillin, 100 ug/mL streptomycin and 400 μg/mL G418. Cells were maintained in 5% CO2 at 37° C. At 24 hrs prior to assay, cells were seeded in clear-base poly-D-lysine coated 384-well plates (BD Biosciences, NJ, USA) at a density of 5,000 cells per well in culture medium and grown overnight in 5% CO2 at 37° C. On assay day, growth media was removed and cells were loaded with Calcium 3 Dye (Molecular Devices) for 35 min at 37° C., under 5% CO2 and then for 25 min at room temperature and atmosphere. Subsequently, cells were tested for agonist-induced increases in intracellular Ca^2+ levels using FLIPR™ or FDSS. Cells were challenged with a compound of Formula (I) (at varying concentrations) and intracellular Ca^2+ was measured for 5 min prior to the addition of icilin to all wells to achieve a final concentration which produces approximately an 80% maximal response.
Basal FI was subtracted prior to normalizing data to percent of maximal response. Curves were generated using the average of quadruplicate wells for each data point, were analyzed using nonlinear regression of either sigmoidal dose response or sigmoidal dose response (variable slope). Finally, the EC50 and IC50 values were calculated with the best-fit dose curve determined by GraphPad Prism.

T1 sequence (Q1A7N1 1-1104): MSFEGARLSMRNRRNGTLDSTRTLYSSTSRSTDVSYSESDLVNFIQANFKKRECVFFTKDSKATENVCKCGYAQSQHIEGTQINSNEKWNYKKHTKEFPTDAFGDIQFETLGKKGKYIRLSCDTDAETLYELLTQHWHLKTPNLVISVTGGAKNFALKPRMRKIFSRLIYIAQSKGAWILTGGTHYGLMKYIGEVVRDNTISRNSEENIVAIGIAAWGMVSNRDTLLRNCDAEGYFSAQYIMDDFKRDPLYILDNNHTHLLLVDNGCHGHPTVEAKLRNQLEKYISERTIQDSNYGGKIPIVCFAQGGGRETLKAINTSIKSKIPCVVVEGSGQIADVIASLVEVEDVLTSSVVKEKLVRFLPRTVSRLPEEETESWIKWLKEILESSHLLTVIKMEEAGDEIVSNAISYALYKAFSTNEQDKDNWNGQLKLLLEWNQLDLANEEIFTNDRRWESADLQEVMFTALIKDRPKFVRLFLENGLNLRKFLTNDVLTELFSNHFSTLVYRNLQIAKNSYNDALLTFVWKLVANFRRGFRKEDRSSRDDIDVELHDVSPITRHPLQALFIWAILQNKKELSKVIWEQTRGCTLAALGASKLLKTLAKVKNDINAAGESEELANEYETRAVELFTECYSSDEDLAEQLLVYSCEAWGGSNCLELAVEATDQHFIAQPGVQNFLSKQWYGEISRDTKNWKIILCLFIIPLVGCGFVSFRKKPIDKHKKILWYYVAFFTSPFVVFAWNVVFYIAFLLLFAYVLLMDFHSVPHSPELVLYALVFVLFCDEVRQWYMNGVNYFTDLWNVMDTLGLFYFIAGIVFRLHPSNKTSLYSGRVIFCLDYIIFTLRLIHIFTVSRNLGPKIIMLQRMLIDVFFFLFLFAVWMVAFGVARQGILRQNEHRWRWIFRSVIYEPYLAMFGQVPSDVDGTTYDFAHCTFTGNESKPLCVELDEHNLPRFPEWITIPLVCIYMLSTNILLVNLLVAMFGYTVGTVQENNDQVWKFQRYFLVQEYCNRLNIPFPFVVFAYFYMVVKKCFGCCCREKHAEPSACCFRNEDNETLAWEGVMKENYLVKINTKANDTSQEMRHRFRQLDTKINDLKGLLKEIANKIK

CC(C)OP(=O)(OC(C)C)C(Cc1ccc(F)c(F)c1)c1sc2ccccc2c1Cl (centres unmarked) [Cpd 12, [1-(3-Chloro-benzo[b]thiophen-2-yl)-2-(3,4-difluoro-phenyl)-ethyl]-phosphonic acid diisopropyl ester]
% Reversal ([1]; 30 mg/kg i.p., time 1 h): 105%
% I (1 μM) (canine TRPM8): 100%

CCOP(=O)(OCC)C(Cc1ccc(F)c(F)c1)c1sc2ccccc2c1Br (centres unmarked) [Cpd 127, [1-(3-Bromo-benzo[b]thiophen-2-yl)-2-(3,4-difluoro-phenyl)-ethyl]-phosphonic acid dethyl ester]
% Reversal ([1]; 30 mg/kg p.o., time 1 (h)): 88%
% I (1 μM) (canine TRPM8): 100%

CCOP(=O)(OCC)C(Cc1cccc(Cl)c1)c1sc2ccccc2c1Br (centres unmarked) [Cpd 137, [1-(3-Bromo-benzo[b]thiophene-2-yl)-2-(3-chloro-phenyl)-ethyl]-phosphonic acid diethyl ester]
% Reversal ([1]; 30 mg/kg p.o., time 1 (h)): 34%
% I (0.5 μM) (canine TRPM8): 102%

CCOP(=O)(OCC)C(Cc1ccc(F)cc1)c1sc2ccccc2c1Br (centres unmarked) [Cpd 238, [1-(3-Bromo-benzo[b]thiophen-2-yl)-2-(4-fluoro-phenyl)-ethyl]-phosphonic acid diethyl ester]
% Reversal ([1]; 30 mg/kg p.o., time 2 (h)): 56%
% I (0.5 μM) (canine TRPM8): 104%

CCOP(=O)(OCC)C(Cc1ccc(F)c(Cl)c1)c1sc2ccccc2c1Br (centres unmarked) [Cpd 244]
% Reversal ([1]; 30 mg/kg p.o., time 2 (h)): 45%
IC50 (canine TRPM8): 28 nM
% I (0.5 μM) (canine TRPM8): 103%

CCOP(=O)(OCC)C(Cc1ccc(F)c(C(F)(F)F)c1)c1sc2ccccc2c1Cl (centres unmarked) [Cpd 298]
% Reversal ([1]; 30 mg/kg p.o., time 1 (h)): 20%
IC50 (canine TRPM8): 85 nM
% I (0.5 μM) (canine TRPM8): 99%

CCOP(=O)(OCC)C(Cc1ccc(SC)cc1)c1sc2ccccc2c1Cl (centres unmarked) [Cpd 299]
% Reversal ([1]; 30 mg/kg p.o., time 1 (h)): 23%
IC50 (canine TRPM8): 141 nM
% I (0.5 μM) (canine TRPM8): 101%

CCOP(=O)(OCC)C(Cc1cc(Cl)ccc1F)c1sc2ccccc2c1Br (centres unmarked) [Cpd 307]
IC50 (canine TRPM8): 26 nM
% I (0.5 μM) (canine TRPM8): 103%

CC(C)OP(=O)(OC(C)C)C(Cc1cc(Cl)ccc1F)c1sc2ccccc2c1Br (centres unmarked) [Cpd 308]
IC50 (canine TRPM8): 17 nM
% I (0.5 μM) (canine TRPM8): 103%

CCOP(=O)(OCC)C(Cc1cccc([N+](=O)[O-])c1)c1sc2ccccc2c1Br (centres unmarked) [Cpd 315]
% I (0.5 μM) (canine TRPM8): 103%

CCOP(=O)(OCC)C(Cc1cccc(N)c1)c1sc2ccccc2c1Br (centres unmarked) [Cpd 318, [2-(3-Amino-phenyl)-1-(3-bromo-benzo[b]thiophen-2-yl)-ethyl]-phosphonic acid diethyl ester]
% I (0.5 μM) (canine TRPM8): 100%
